This note sets out measurements from patent US9273057B2 (Bristol-Myers Squibb Company, priority 2012, dated 2016).

Structures are written as SMILES.

For the test, the target named is CK2A1 (CK2α/β) (Homo sapiens, UniProt P68400). In words: CK2 kinase assay, CK2A1 (CK2α/β). Type of test: biochemical. The settings on record: Table A; read-out: CK2A1 (CK2α/β) (IC50).
Sequence of CK2A1 (CK2α/β) (P68400 whole entry, species assumed): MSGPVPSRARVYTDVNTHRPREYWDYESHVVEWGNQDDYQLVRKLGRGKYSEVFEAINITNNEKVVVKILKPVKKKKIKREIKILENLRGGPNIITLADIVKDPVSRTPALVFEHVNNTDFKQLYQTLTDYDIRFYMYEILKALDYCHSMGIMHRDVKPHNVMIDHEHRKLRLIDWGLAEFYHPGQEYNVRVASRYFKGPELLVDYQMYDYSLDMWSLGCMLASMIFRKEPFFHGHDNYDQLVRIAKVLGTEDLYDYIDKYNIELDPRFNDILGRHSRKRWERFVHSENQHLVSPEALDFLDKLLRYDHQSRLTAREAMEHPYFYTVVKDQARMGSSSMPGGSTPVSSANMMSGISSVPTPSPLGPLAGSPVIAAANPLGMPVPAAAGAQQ
Sequence of CK2A1 (CK2α/β) (P67870 whole entry partner, species assumed): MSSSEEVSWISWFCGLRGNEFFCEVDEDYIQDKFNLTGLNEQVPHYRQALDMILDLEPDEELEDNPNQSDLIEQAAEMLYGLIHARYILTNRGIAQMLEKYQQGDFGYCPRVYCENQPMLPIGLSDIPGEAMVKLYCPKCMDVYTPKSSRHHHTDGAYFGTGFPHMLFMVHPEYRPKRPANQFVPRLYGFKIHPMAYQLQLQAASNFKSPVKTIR
As for `N#Cc1cc(Nc2nc(NC3CC3)c3ncc(C#N)n3n2)c(Cl)c(N2CCN(C(=O)OCC3(CO)COC3)CC2)c1` [Example 533, (3-(hydroxymethyl)oxetan-3-yl)methyl 4-(2-chloro-5-cyano-3-((7-cyano-4-(cyclopropylamino)imidazo[2,1-f][1,2,4]triazin-2-yl)amino)phenyl)piperazine-1-carboxylate], the IC50 stood at 0.43 nM.

`COC(=O)N[C@H]1CCN(c2cc(C(N)=O)cc(Nc3nc(NC4CC4)c4ncc(C#N)n4n3)c2Cl)C[C@@H]1O` [Example 388, methyl ((3S,4S)-1-(5-carbamoyl-2-chloro-3-((7-cyano-4-(cyclopropylamino)imidazo[2,1-f][1,2,4]triazin-2-yl)amino)phenyl)-3-hydroxypiperidin-4-yl)carbamate]: the IC50 worked out at 5.13 nM. Consider `COC(=O)N[C@@H]1CCN(c2cc(C#N)cc(Nc3nc(NC4CC4)c4ncc(C#N)n4n3)c2Cl)C[C@H]1OC(=O)C1(N)CC1` [Example 194, (3R,4R)-1-(2-chloro-5-cyano-3-((7-cyano-4-(cyclopropylamino)imidazo[2,1-f][1,2,4]triazin-2-yl)amino)phenyl)-4-((methoxycarbonyl)amino)-3-piperidinyl 1-aminocyclopropanecarboxylate], for which the IC50 turned out to be 1.25 nM.

In the case of `COC(=O)Nc1cc(Nc2nc(NC3CC3)c3ncc(C#N)n3n2)c(Cl)c(N2CC[C@@H](NC(=O)OC)[C@@H](F)C2)c1` (racemic) [Example 202, (+/−) methyl (4-chloro-3-((7-cyano-4-(cyclopropylamino)imidazo[2,1-f][1,2,4]triazin-2-yl)amino)-5-((3S,4R)-3-fluoro-4-((methoxycarbonyl)amino)-1-piperidinyl)phenyl)carbamate], the IC50 turned out to be 0.83 nM. As to `N#Cc1cc(Nc2nc(NC3CC3)c3ncc(C#N)n3n2)c(Cl)c(C2CCNCC2)c1` [Example 208, 2-((2-chloro-5-cyano-3-(piperidin-4-yl)phenyl)amino)-4-(cyclopropylamino)imidazo[2,1-f][1,2,4]triazine-7-carbonitrile], the IC50 stood at 0.57 nM. Take `N#Cc1cc(Nc2nc(NC3CC3)c3ncc(C#N)n3n2)c(Cl)c(C(O)C(F)(F)F)c1` (racemic) [Example 680, (+/−)-2-((2-chloro-5-cyano-3-(2,2,2-trifluoro-1-hydroxyethyl)phenyl)amino)-4-(cyclopropylamino)imidazo[2,1-f][1,2,4]triazine-7-carbonitrile]: the IC50 was found to be 3.73 nM. The figure for `CCNc1nc(Nc2cc(NC(=O)OC)cc(C3CCN(C)CC3)c2Cl)nn2c(C#N)cnc12` [Example 398, methyl (4-chloro-3-((7-cyano-4-(ethylamino)imidazo[2,1-f][1,2,4]triazin-2-yl)amino)-5-(1-methylpiperidin-4-yl)phenyl)carbamate] is 3.3 nM; for `CCNc1nc(Nc2cc(C#N)cc(N3CC[C@H]4NC(=O)O[C@@H]4C3)c2Cl)nn2c(C#N)cnc12` [Example 375, 2-((2-chloro-5-cyano-3-((3aR,7aR)-2-oxohexahydrooxazolo[5,4-c]pyridin-5(2H)-yl)phenyl)amino)-4-(ethylamino)imidazo[2,1-f][1,2,4]triazine-7-carbonitrile] it is 0.43 nM. The figure for `N#Cc1cc(NCCO)c(Cl)c(Nc2nc(NC3CC3)c3ncc(C#N)n3n2)c1` [Example 615, 2-((2-chloro-5-cyano-3-((2-hydroxyethyl)amino)phenyl)amino)-4-(cyclopropylamino)imidazo[2,1-f][1,2,4]triazine-7-carbonitrile] is 0.18 nM. The value for `CC(O)C1(N2CCN(c3cc(C(F)F)cc(Nc4nc(NC5CC5)c5ncc(C#N)n5n4)c3Cl)CC2)COC1` (stereo not shown) [Example 271, 2-((2-chloro-5-(difluoromethyl)-3-(4-(3-(1-hydroxyethyl)-3-oxetanyl)-1-piperazinyl)phenyl)amino)-4-(cyclopropylamino)imidazo[2,1-f][1,2,4]triazine-7-carbonitrile] was 1.22 nM.
